According to patent publication US6743816B2, “Imidazole derivatives with anti-inflammatory activity” (J. Uriach & Cia S.A., priority 2000, dated 2004):
Structures can show the parent of a compound that is named as a salt.

How the values were obtained:
[1] = target: T1, human COX-1 (U-937 from human histiocitic lymphoma) (Homo sapiens, UniProt P23219); test: Inhibition of COX-1 activity in human cell line (PGE2 production after arachidonic acid); format: cell-based; settings: 0.1 μM test compound; U-937 cells; PGE2 after 10 μM arachidonic acid
T1 construct: cell lines expressing human COX-1 (U-937 from human histiocitic lymphoma); endogenous in cells; host or cells: U-937 (human histiocytic lymphoma)
Procedure: (§1) Inhibition of Cyclooxygenase-1 (COX-1) and Cyclooxygenase-2 (COX-2) Activity in Human Cell Lines
The inhibition of COX-1 and COX-2 is determined by assessing the PGE2 production after stimulation with arachidonic acid in cell lines expressing human COX-1 (U-937 from human histiocitic lymphoma) and human COX-2 (143.98.2 from human osteosarcoma), respectively.
(§2) The osteosarcoma-derived cells were cultured in 1 mL of DMEM culture medium supplemented with 10% fetal calf serum, in 24-well multidishes until confluence. U-937 cells were cultured in RPMI medium supplemented with 10% fetal calf serum in flasks.
(§3) To evaluate COX-2 activity, the medium was removed and replaced with Hepes-buffered saline solution (HBSS) without Ca^2+/Mg^2+ (2×10^5 cells/well). To evaluate COX-1 activity, the medium was removed and U-937 cells were resuspended to a final density of 3×10^6 cells/mL in HBSS without Ca^2+/Mg^2+ (1 mL/well, in 24-well multidishes). 1 μL of a solution of the test compound dissolved in DMSO or vehicle was added, and the samples were incubated for 15 min at 37° C. (5% CO2 and 95% humidity). Arachidonic acid was added (final concentration: 10 μM) and the samples were incubated for 10 min more. Next the reactions were quenched by adding indomethacin (8 mM, 30 μL). The amount of PGE2 in the supernatant was determined by specific enzymatic immunoassay (Kit Prostaglandin E2, Biotrak EIA system RPN222, Amersham Pharmacia Biotech). All the assays were performed in triplicate.

[2] = target: T2, human COX-2 (143.98.2 from human osteosarcoma) (Homo sapiens, UniProt P35354); test: Inhibition of COX-2 activity in human cell line (PGE2 production after arachidonic acid); format: cell-based; settings: 0.1 μM test compound; 143.98.2 osteosarcoma cells; PGE2 after 10 μM arachidonic acid
T2 construct: human COX-2 (143.98.2 from human osteosarcoma); endogenous in cells; host or cells: 143.98.2 (human osteosarcoma)
T2 sequence (P35354 18-604): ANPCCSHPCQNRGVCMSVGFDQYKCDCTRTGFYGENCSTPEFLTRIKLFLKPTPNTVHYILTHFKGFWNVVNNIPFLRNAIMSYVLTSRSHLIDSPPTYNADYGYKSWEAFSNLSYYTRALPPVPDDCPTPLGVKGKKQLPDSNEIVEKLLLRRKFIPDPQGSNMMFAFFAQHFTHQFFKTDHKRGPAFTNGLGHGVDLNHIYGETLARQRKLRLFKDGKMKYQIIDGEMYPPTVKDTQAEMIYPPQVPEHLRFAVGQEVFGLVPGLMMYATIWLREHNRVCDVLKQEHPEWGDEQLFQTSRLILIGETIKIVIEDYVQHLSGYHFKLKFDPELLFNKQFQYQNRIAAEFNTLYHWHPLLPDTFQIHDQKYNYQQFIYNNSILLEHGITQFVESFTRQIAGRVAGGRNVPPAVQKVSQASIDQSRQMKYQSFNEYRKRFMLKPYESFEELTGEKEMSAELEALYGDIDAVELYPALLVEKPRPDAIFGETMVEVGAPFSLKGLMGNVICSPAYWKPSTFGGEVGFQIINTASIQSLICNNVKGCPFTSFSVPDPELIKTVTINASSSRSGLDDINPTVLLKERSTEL
Procedure: as §1, §2
as §3, with “(5% CO2 and 95% humidity).” left out

T1 sequence (P23219 24-599): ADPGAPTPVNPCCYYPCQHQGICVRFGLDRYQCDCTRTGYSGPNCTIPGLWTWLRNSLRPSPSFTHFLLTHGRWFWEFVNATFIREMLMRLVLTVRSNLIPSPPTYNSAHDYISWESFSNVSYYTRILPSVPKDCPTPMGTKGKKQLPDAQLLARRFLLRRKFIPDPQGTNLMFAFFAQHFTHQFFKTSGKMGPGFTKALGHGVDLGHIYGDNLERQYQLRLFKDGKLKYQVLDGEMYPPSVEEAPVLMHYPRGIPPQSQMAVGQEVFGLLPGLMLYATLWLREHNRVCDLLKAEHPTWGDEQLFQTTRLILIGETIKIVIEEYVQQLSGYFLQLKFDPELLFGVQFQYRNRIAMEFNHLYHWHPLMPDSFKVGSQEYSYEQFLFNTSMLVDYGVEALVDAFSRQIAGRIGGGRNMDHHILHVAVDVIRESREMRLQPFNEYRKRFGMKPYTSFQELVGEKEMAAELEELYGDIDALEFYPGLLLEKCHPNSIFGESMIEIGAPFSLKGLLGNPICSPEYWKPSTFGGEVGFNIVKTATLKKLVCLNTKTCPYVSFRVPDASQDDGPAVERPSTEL

Structure (SMILES)	inhibition at 0.1 µM [1] [%]	inhibition at 0.1 µM [2] [%]	% Inhibition (0.1 μM) COX-1 [1] [%]	% Inhibition (0.1 μM) COX-2 [2] [%]
CCOc1ccc(-c2c(Cl)ncn2-c2ccc(S(N)(=O)=O)cc2)cc1F [Example 12, 4-[4-Chloro-5-(4-ethoxy-3-fluorophenyl)imidazol-1-yl]benzenesulfonamide]	0	65	–	–
CCCc1ccc(-c2c(Cl)ncn2-c2ccc(S(C)(=O)=O)cc2)cc1 [Example 16, 4-Chloro-1-(4-methylsulfonylphenyl)-5-(4-propylphenyl)imidazole]	0	48	–	–
CCOc1ccc(-c2c(Cl)ncn2-c2ccc(S(C)(=O)=O)cc2)cc1F [Example 3, 4-Chloro-5-(4-ethoxy-3-fluorophenyl)-1-(4-methylsulfonylphenyl)imidazole]	15	76	–	–
CCOc1ccc(-c2c(Cl)ncn2-c2ccc(S(N)(=O)=O)cc2)cc1Cl [Example 13, 4-[4-Chloro-5-(3-chloro-4-ethoxyphenyl)imidazol-1-yl]benzenesulfonamide]	0	97	–	–
COc1c(Cl)cc(-c2c(Cl)ncn2-c2ccc(S(N)(=O)=O)cc2)cc1Cl [Example 15, 4-[4-Chloro-5-(3,5-dichloro-4-methoxyphenyl)imidazol-1-yl]benzenesulfonamide Hydrochloride]	0	90	–	–
CCOc1ccc(-c2c(Cl)ncn2-c2ccc(S(C)(=O)=O)cc2)cc1Cl [Example 6, 4-Chloro-5-(3-chloro-4-ethoxyphenyl)-1-(4-methylsulfonylphenyl)imidazole]	0	87	–	–
COc1cc(-c2c(Cl)ncn2-c2ccc(S(N)(=O)=O)cc2)ccc1F [Example 11, 4-[4-Chloro-5-(4-fluoro-3-methoxyphenyl)imidazol-1-yl]benzenesulfonamide]	0	88	–	–
COc1c(Cl)cc(-c2c(Cl)ncn2-c2ccc(S(C)(=O)=O)cc2)cc1Cl [Example 8, 4-Chloro-5-(3,5-dichloro-4-methoxyphenyl)-1-(4-methylsulfonylphenyl)imidazole]	0	92	–	–
COc1ccc(-c2c(Cl)ncn2-c2ccc(S(N)(=O)=O)cc2)cc1Cl [Example 14, 4-[4-Chloro-5-(3-chloro-4-methoxyphenyl)imidazol-1-yl]benzenesulfonamide]	8	87	–	–
CC(C)c1ccc(-c2c(Cl)ncn2-c2ccc(S(C)(=O)=O)cc2)cc1 [Example 9, 4-Chloro-5-(4-isopropylphenyl)-1-(4-methylsulfonylphenyl)imidazole]	0	82	–	–
COc1cc(-c2c(Cl)ncn2-c2ccc(S(C)(=O)=O)cc2)ccc1F [Example 2, 4-Chloro-5-(4-fluoro-3-methoxyphenyl)-1-(4-methylsulfonylphenyl)imidazole]	0	82	–	–
CS(=O)(=O)c1ccc(-n2cnc(Cl)c2-c2ccc3c(c2)OCO3)cc1 [Example 7, 4-Chloro-5-[3,4-(methylenedioxy)phenyl]-1-(4-methylsulfonylphenyl)imidazole]	–	–	1	–
CS(=O)(=O)c1ccc(-n2cnc(Cl)c2-c2cc(F)cc(F)c2)cc1 [Example 4, 4-Chloro-5-(3,5-difluorophenyl)-1-(4-methylsulfonylphenyl)imidazole]	2	57	–	–
CC(C)Oc1ccc(-c2c(Cl)ncn2-c2ccc(S(C)(=O)=O)cc2)cc1 [Example 1, 4-Chloro-5-(4-isopropoxyphenyl)-1-(4-methylsulfonylphenyl)imidazole]	0	52	–	–
COc1ccc(-c2c(Cl)ncn2-c2ccc(S(C)(=O)=O)cc2)cc1Cl [Example 5, 4-Chloro-5-(3-chloro-4-methoxyphenyl)-1-(4-methylsulfonylphenyl)imidazole]	17	92	–	–
CCN(CC)c1ccc(-c2c(Cl)ncn2-c2ccc(S(C)(=O)=O)cc2)cc1 [Example 10, 4-Chloro-5-(4-N,N-diethylaminophenyl)-1-(4-methylsulfonylphenyl)imidazole]	–	–	0	64
